Measurements reported in patent publication US20060258736A1, “DOSING REGIMEN” (Bristol-Myers Squibb Company, priority 2005, published 2006).
“Also recorded” adds a separate entry of the source.

What was measured:
Type in all cases: in vivo, human
[1] = system: advanced solid tumors refractory to standard therapy; assay: Phase I clinical trial, twice weekly oral dosing: tumor response (modified WHO criteria)
Procedure: Patients with histologically confirmed, advanced solid tumors refractory to standard therapy, ECOG performance status 0-2, and adequate live, renal and bone marrow function without symptomatic brain metastasis or pre-existing neuropathy ≧grade 2 were eligible for the trial. The starting dose was 60 mg/m^2 with planned dose escalation of 20 mg/m^2 for each next cohort, consisting of at least 3 patients. Cohorts were expanded to 6 patients upon occurrence of a dose limiting toxicity (DLT). No premedication was required. Tumor response was evaluated according to the modified WHO criteria.

patients = assay: Neuropathy on the weekly treatment schedule (comparison, n = 48)
[2] = system: patients with advanced solid tumors; assay: Phase I clinical trial, twice weekly oral dosing: toxicity (NCI-CTC version 2.0) and dose limiting toxicities; settings: for Neuropathy / neurotoxicity on twice weekly regimen compared to weekly schedule: twice weekly vs weekly
Procedure: Patients with histologically confirmed, advanced solid tumors refractory to standard therapy, ECOG performance status 0-2, and adequate live, renal and bone marrow function without symptomatic brain metastasis or pre-existing neuropathy ≧grade 2 were eligible for the trial.
The starting dose was 60 mg/m^2 with planned dose escalation of 20 mg/m^2 for each next cohort, consisting of at least 3 patients. Cohorts were expanded to 6 patients upon occurrence of a dose limiting toxicity (DLT). No premedication was required.
Toxicity was evaluated according to NCI-CTC (version 2.0).
Dose limiting toxicities (DLTs) were defined as any of the following drug related events occurring during the first cycle (first 4 weeks): grade 4 neutropenia>5 days, febrile neutropenia, grade 4 thrombocytopenia or grade 3 requiring platelet transfusion, any grade 3-4 non-hematological toxicity, QTc interval>500 msec, any significant arrhythmia, any dose reduction or omission due to toxicity.

[3] = any cycle, 19 patients, 60-100 mg/m^2 twice weekly

In the case of `COC(=O)O[C@@]12CO[C@@H]1C[C@H](O)[C@@]1(C)C(=O)[C@H](OC(C)=O)C3=C(C)[C@@H](OC(=O)[C@H](O)[C@@H](NC(=O)OC(C)(C)C)C(C)(C)C)C[C@@](O)([C@@H](OC(=O)c4ccccc4)[C@H]21)C3(C)C` [Compound I, 3′-tert-butyl-3′-N-tert-butyloxycarbonyl-4-deacetyl-3′-dephenyl-3 ′-N-debenzoyl-4-O-methoxycarbonyl-paclitaxel], the Confirmed partial responses ([1]; 18 response-evaluable patients) is reported as “three confirmed partial responses were observed in 18 response-evaluable patients”, the “Confirmed partial responses, no. of patients” value ([1]; of 3 prostate carcinoma patients) is reported as 1 and the “Confirmed partial responses, no. of patients” value ([1]; of 6 response-evaluable NSCLC patients) is reported as 2. The Antitumor activity ([1]; patients with NSCLC and prostate carcinoma) was “Promising activity has been observed”, the “Neuropathy (any cycle) Grade 1, no. of patients” value (patients; Weekly schedule (n = 48)) was 6 and the “Neuropathy (any cycle) Grade 1, percent of patients” value (patients; Weekly schedule (n = 48)) was 13%. For the same compound, the “Neuropathy (any cycle) Grade 2, no. of patients” value (patients; Weekly schedule (n = 48)) was 19, the “Neuropathy (any cycle) Grade 2, percent of patients” value (patients; Weekly schedule (n = 48)) was 40% and the “Neuropathy (any cycle) Grade 3, no. of patients” value (patients; Weekly schedule (n = 48)) was 6. The “Neuropathy (any cycle) Grade 3, percent of patients” value (patients; Weekly schedule (n = 48)) was 12%, the “Neuropathy (any cycle) Total, no. of patients” value (patients; Weekly schedule (n = 48)) was 31 and the “Neuropathy (any cycle) Total, percent of patients” value (patients; Weekly schedule (n = 48)) was 65%. For the same compound, the “Main and dose limiting toxicity” value (patients; weekly treatment regimen) was “peripheral neuropathy”, the “Dose limiting toxicities (DLTs)” value ([2]; 60 mg/m^2 twice weekly (n=3), first cycle) was “No dose limiting toxicities (DLTs) have been observed” and the “Dose limiting toxicities (DLTs), number” value ([2]; 80 mg/m^2 twice weekly (n=10), first cycle, a grade 3 fatigue and a dose-omission due to grade 2 peripheral neuropathy) was 2. For the same compound, the “Toxicity shortly after the first cycle (not meeting DLT criteria)” value ([2]; 100 mg/m^2 twice weekly) was “one patient developed grade 4 neutropenia, grade 3 fatigue and grade 3 hematuria”, the “Dose limiting toxicities (DLTs)” value ([2]; 100 mg/m^2 twice weekly, first three patients, first cycle) was “no DLTs were observed in the first three patients” and the “Neuropathy (any cycle) Grade 1, no. of patients” value ([2]; Twice weekly schedule (n = 19)) was 8. The “Neuropathy (any cycle) Grade 1, percent of patients” value ([2]; Twice weekly schedule (n = 19)) was 42%, the “Neuropathy (any cycle) Grade 2, no. of patients” value ([2]; Twice weekly schedule (n = 19)) was 2 and the “Neuropathy (any cycle) Grade 2, percent of patients” value ([2]; Twice weekly schedule (n = 19)) was 10%. The “Neuropathy (any cycle) Total, no. of patients” value ([2]; Twice weekly schedule (n = 19)) was 10, the “Neuropathy (any cycle) Total, percent of patients” value ([2]; Twice weekly schedule (n = 19)) was 52% and the “Drug-related side effects: Abdominal pain, Gr 1-2 (no. of patients)” value [2, 3] was 2. For the same compound, the “Drug-related side effects: Alopecia, Gr 1-2 (no. of patients)” value [2, 3] was 3, the “Drug-related side effects: Anorexia, Gr 1-2 (no. of patients)” value [2, 3] was 6 and the “Drug-related side effects: Diarrhea, Gr 1-2 (no. of patients)” value [2, 3] was 9. The “Drug-related side effects: Epistaxis, Gr 1-2 (no. of patients)” value [2, 3] was 7, the “Drug-related side effects: Fatigue, Gr 1-2 (no. of patients)” value [2, 3] was 7 and the “Drug-related side effects: Fatigue, Gr 3 (no. of patients)” value [2, 3] was 2. For the same compound, the “Drug-related side effects: Hematuria, Gr 3 (no. of patients)” value [2, 3] was 1, the “Drug-related side effects: Motor neuropathy, Gr 1-2 (no. of patients)” value [2, 3] was 1 and the “Drug-related side effects: Myalgia, Gr 1-2 (no. of patients)” value [2, 3] was 3. The “Drug-related side effects: Nausea, Gr 1-2 (no. of patients)” value [2, 3] was 3, the “Drug-related side effects: Neutropenia, Gr 1-2 (no. of patients)” value [2, 3] was 1 and the “Drug-related side effects: Neutropenia, Gr 4 (no. of patients)” value [2, 3] was 1. For the same compound, the “Drug-related side effects: Sens. neuropathy, Gr 1-2 (no. of patients)” value [2, 3] was 10, the “Drug-related side effects: Stomatitis, Gr 1-2 (no. of patients)” value [2, 3] was 1 and the “Drug-related side effects: Taste disturbance, Gr 1-2 (no. of patients)” value [2, 3] was 7. For the same compound, the “Drug-related side effects: Thrombocytopenia, Gr 1-2 (no. of patients)” value [2, 3] was 5, the “Drug-related side effects: Vomiting, Gr 1-2 (no. of patients)” value [2, 3] was 2 and the Tolerability ([2]; twice weekly treatment regimen) was “well tolerated”. The “Neuropathy / neurotoxicity on twice weekly regimen compared to weekly schedule” value [2] was “reduces peripheral neuropathy; also recorded: neuropathy appears to be less frequent and less severe; also recorded: Neuropathy appears to occur less frequently and to be less severe than on a weekly treatment schedule” and the “Neuropathy / neurotoxicity on twice weekly regimen compared to weekly schedule” value ([2]; listed as 3′-tert-butyl-3′-N-tert-butyloxycarbonyl-4-deacetyl-3′-dephenyl-3′-N-debenzoyl-4) was “may reduce the neurotoxicity of the drug”.
